Assay [1] relates to SMN2 reporter (SMN2-luciferase) in HEK293 cells. Put plainly: SMN2-luciferase reporter assay. The class given is cell-based, human. On the set-up: % Activation: concentration or dose not given beside the values. The following applies: for EC50: Homo sapiens, HEK293; for % Activation: percentage increase over basal expression in DMSO control wells. The protocol: (§1) In this high throughput screening assay, the SMN promoter was combined with exons 1-6 and an exon 7 splicing cassette in a single construct that should respond to compounds that increase SMN transcription, exon 7 inclusion, or that might stabilize the SMN RNA or protein. A stable clonal HEK293 cell line that expresses the SMN2 reporter was isolated. Particularly, cells were incubated at 37° C. with 5% CO2. HEK-293 cells were cultured in D-MEM (Gibco 11995) with 10% fetal bovine serum (FBS; Atlas) and 1× pen-strep (Gibco 15140). Reporter cell lines containing SMN1, SMN2, or SV40 driven firefly luciferase reporters and a control (renilla luciferase reporter) were selected and maintained in D-MEM with 10% FBS and 1× pen-strep with 200 μg/mL hygromycin B (Invitrogen 10687-010). 3813 and 3814 fibroblasts were cultured in D-MEM (Gibco 11995) with 10% fetal bovine serum (FBS; Atlas) and 1× pen-strep (Gibco 15140).
The HEK293 reporter cell lines were then plated at 50,000 cells per well in 96-well plates and incubated overnight. […] The final DMSO concentration was 0.1%. Luciferase activity was assayed with either SteadyGlo (Promega E2510) or DualGlo (Promega E2920) luciferase using the Pherastar FS (BMG Labtech) plate reader. For detailed assay conditions, see Table 4. All data points were transformed from light units to percentage increase over basal expression in the treated control wells (DMSO concentration as appropriate, usually 0.1%) and expressed as percent activation (FIG. 1A). […]
A general note: A reporter such as luciferase makes a cellular process visible.

Assay [2] deals with total SMN protein in brain extracts. Put plainly: Brain SMN protein in treated mice, Western blot. The assay is classed as in vivo. The following applies: once daily subcutaneous or oral for 5 days from PND2, tissues PND7, dose-dependent. The method, then:
Animals were treated once daily (subcutaneous injection or oral) for 5 days, starting on postnatal day 2 (PND) with increasing doses of 291-88-1. On PND7, mice were sacrificed and tissues were harvested. Tissues were harvested from treated animals on PND 7 and compared to tissues from non-transgenic control mice (FVB) and VH (vehicle: PEG:PBS 50:50) treated animals. Brain extracts were assayed for total SMN protein in comparison to the housekeeping genes, actin and GAPDH (FIGS. 14 and 15, respectively). There was a dose-dependent increase in SMN protein levels ranging from 2-3 fold.
On the technique in general: In western blotting, separated proteins are transferred to a membrane and probed.

The next assay has as its system renilla luciferase. Put plainly: Renilla luciferase control in cycloheximide experiment. The class given is cell-based. The conditions noted are these: 10 μM compound plus 10 μM cycloheximide. The protocol: as §1
To investigate the mechanism of action of LDN291-88-1, the HEK293 SMN2 reporter cells were exposed to LDN291-88-1 at a concentration of 10 μM plus 10 μM cycloheximide to block new protein synthesis, or the same concentration of cycloheximide plus DMSO for comparison. Cell lysates were prepared at the times indicated up to 24 hours as in FIGS. 3A & 3B. The amount of SMN-luciferase protein was quantified by luciferase assay and plotted versus time. […]

Assay [3] has as its system SMN protein in patient-derived fibroblasts (3813 cells; SMN1-/-SMN2+/+). Put plainly: SMN protein detection in patient fibroblasts by Western blot. The following applies: 3813 fibroblasts, 48 hours, dose dependent, relative to DMSO control. The assay is classed as cell-based, human. The protocol:
For detection of SMN protein in patient fibroblasts, 8000 cells per cm^2 were plated 24 hours prior to compound addition. Since SMN is expressed ubiquitously, cells containing even one copy of the human SMN1 gene will mask the effects of compounds on expression from the SMN2 gene. SMN null cells are not viable. The current standard is to use a human cell line derived from a severe SMA patient. The fibroblast strain 3813 is SMN1 null with three copies of SMN2. […] SMN protein levels were analyzed by dose response in quantitative immunoblots with statistical analysis by one-way ANOVA with post-hoc analysis using Dunnett or Bonferroni, as appropriate. […] Quantification of protein was performed with the Fujifilm LAS-4000 Multifunctional Imaging System. The signal intensity was measured for each band on an immunoblot, normalized to the loading control, and the fold increase was determined in relation to the appropriate DMSO-treated control. Treatment of patient-derived fibroblasts (3813 cells; SMN1−/−SMN2+/+) with compound 291-88-1 gave a dose dependent 2-3 fold increase of SMN protein expression as determined by Western blot analysis (FIG. 1B).

The test system of the next assay is SMNΔ7 SMA mice. Put plainly: Survival of SMA mice. The assay is classed as in vivo. The conditions noted are these: 10 mg/kg IP daily. The method, then:
Compound 291-88-1 was administered either by intraperitoneal (IP) administration into the SMA mice SMNΔ7 FVB.SMNΔ7; SMN2; Smn (Jackson Laboratories 005025). Daily treatment of SMNΔ7 animals with 10 mg/kg (IP) was continued as long as feasible. The lifespan of treated animals was compared to that of untreated animals and vehicle (VH) treated animals (FIG. 13). VH treated animals included treatment with 40% PEG400+60% (10% HP-β-CD in water). […] Treatment with compound 291-88-1 increased median survival to 18.5 days, p<0.0001.

`O=C(Nc1nc2ncc(C(F)(F)F)cc2s1)c1ccccn1` [Compound 287-51-1]: in assay [1], the EC50 was determined as 1000 nM and the “% Activation” value was found to be 110%.

For `O=C(Nc1nc2ncc(C(F)(F)F)cc2s1)c1ccccc1` [Compound 287-98-2], in assay [1], the EC50 came out at 2300 nM and the “% Activation” value amounted to 150%.

Regarding `O=C(Nc1nc2cnc(C(F)(F)F)cc2s1)c1ccccc1` [Compound 291-88-1], the “increase in SMN protein levels in brain” value in assay [2] is recorded as 2-3 fold. For the same molecule, the “maximal increase in SMN-luciferase greater than the DMSO control” value in assay [1] (48 hours, 3 μM) amounted to 400%. Besides, in assay [1], the EC50 is 169 nM and the “% Activation” value was determined as 216%. Moreover, in the assay with renilla luciferase, the “effect on renilla luciferase” value is “no effect”. The “increase of SMN protein expression” value in assay [3] is recorded as 2-3 fold. This molecule also showed a median survival with SMNΔ7 SMA mice of 18.5 days.

In the case of `O=C(Nc1nc2cnc(Cl)cc2s1)c1ccccc1` [Compound 299-1-1], in assay [1], a half-maximal effect (EC50) was put at 2020 nM and the “% Activation” value worked out at 154%.

Consider `O=C(Nc1nc2ncc(C(F)(F)F)cc2s1)c1cscn1` [Compound 299-9-1], for which, in assay [1], it took 1220 nM to reach a half-maximal effect (EC50) and the “% Activation” value worked out at 154%.

`O=C(Nc1nc2ncc(C(F)(F)F)cc2s1)c1cncs1` [Compound 299-10-1]: in assay [1], it took 3200 nM to reach a half-maximal effect (EC50) and the “% Activation” value is recorded as 112%.

With `O=C(Nc1nc2cnc(C(F)(F)F)cc2s1)c1ccccn1` [Compound 299-15-1], in assay [1], the EC50 was found to be 172 nM and the “% Activation” value was 169.5%.

As for `O=C(Nc1nc2cnc(C(F)(F)F)cc2s1)c1cccnc1` [Compound 299-16-1], in assay [1], the response was half-maximal at 154 nM (EC50) and the “% Activation” value is 177%.

`O=C(Nc1nc2cnc(C(F)(F)F)cc2s1)c1cnco1` [Compound 299-53-1]: in assay [1], the half-maximal effective concentration (EC50) worked out at 4400 nM and the “% Activation” value came out at 200%.

Regarding `O=C(Nc1nc2cnc(C(F)(F)F)cc2s1)c1cocn1` [Compound 299-54-1], in assay [1], the concentration giving a half-maximal response (EC50) was found to be 1140 nM and the “% Activation” value worked out at 208%.

Regarding `O=C(Nc1nc2cnc(C(F)(F)F)cc2s1)c1ccon1` [Compound 299-55-1], in assay [1], the EC50 was 245 nM and the “% Activation” value is listed as 245%.

Take `O=C(Nc1nc2cnc(C(F)(F)F)cc2s1)c1ccnnc1` [Compound 299-63-1]: in assay [1], the midpoint of the response, the EC50, lay at 11300 nM and the “% Activation” value amounted to 163%.

`O=C(Nc1nc2cnc(C(F)(F)F)cc2s1)c1ccncn1` [Compound 299-73-1]: in assay [1], the EC50 came to 2680 nM and the “% Activation” value was determined as 162%.

For the molecule `O=C(Nc1nc2cnc(C(F)(F)F)cc2s1)c1cncs1` [Compound 299-93-1], in assay [1], it took 142 nM to reach a half-maximal effect (EC50) and the “% Activation” value came out at 140%.

Turning to `O=C(Nc1nc2cnc(C(F)(F)F)cc2o1)c1ccccc1` [Compound 301-62-1], in assay [1], a half-maximal effect (EC50) was put at 1250 nM and the “% Activation” value was found to be 80%.

For `O=C(Nc1nc2cnc(C(F)(F)F)cc2s1)c1cncnc1` [Compound 301-90-1], in assay [1], the EC50 was 2700 nM and the “% Activation” value stood at 170%.

Consider `O=C(Nc1nc2cnc(C(F)(F)F)cc2s1)c1ccc(F)cc1` [Compound 311-65], for which, in assay [1], the EC50 stood at 612 nM and the “% Activation” value was 87.5%.

Take `O=C(Nc1nc2cnc(C(F)(F)F)cc2s1)c1cscn1` [Compound 311-84]: in assay [1], the concentration giving a half-maximal response (EC50) amounted to 620 nM and the “% Activation” value was determined as 270%.

For the molecule `O=C(Nc1nc2cnc(C(F)(F)F)cc2s1)c1nccs1` [Compound 311-85], in assay [1], the EC50 turned out to be 163 nM and the “% Activation” value is given as 218%.

`COc1cc2sc(NC(=O)c3ccccc3)nc2cn1` [Compound 324-2-1]: in assay [1], a half-maximal response (EC50) required 675 nM and the “% Activation” value was 150%.

Consider `O=C(Nc1nc2cnc(C(F)(F)F)cc2s1)c1cc[nH]n1` [Compound 324-25-1], for which, in assay [1], the EC50 is 2040 nM and the “% Activation” value was determined as 178%.

As for `O=C(Nc1nc2cnc(C(F)(F)F)cc2s1)c1ccno1` [Compound 324-26-1], in assay [1], the response was half-maximal at 214 nM (EC50) and the “% Activation” value was found to be 193%.

Consider `Cc1cc(C(=O)Nc2nc3cnc(C(F)(F)F)cc3s2)no1` [Compound 324-33-1], for which, in assay [1], a half-maximal effect (EC50) was put at 5400 nM and the “% Activation” value is given as 110%.

For `O=C(Nc1nc2cnc(C(F)(F)F)cc2s1)c1ccns1` [Compound 324-36-1], in assay [1], a half-maximal effect (EC50) was put at 64 nM and the “% Activation” value is 198%.

Consider `O=C(Nc1nc2cnc(C(F)(F)F)cc2s1)c1cnsc1` [Compound 324-44-1], for which, in assay [1], the midpoint of the response, the EC50, lay at 380 nM and the “% Activation” value is 220%.

In the case of `O=C(Nc1nc2cnc(C(F)(F)F)cc2s1)c1ccsn1` [Compound 324-48-1], in assay [1], the EC50 is 335 nM and the “% Activation” value came to 210%.

`O=C(Nc1nc2cnc(C(F)(F)F)cc2s1)c1ncco1` [N-(6-trifluoromethyl)thiazolo[4,5-c]pyridin-2-yl)oxazole-2-carboxamide]: in assay [1], a half-maximal response (EC50) required 1300 nM and the “% Activation” value is listed as 74%.

Usually EC50 stands for the midpoint of the concentration-response curve.
